Some test systems named below: IGROV-1; Malme-3M; SK-MEL-28; SNB-19; SW-620; SK-MEL-5; MDA-MB-435; NCI-H23; A498; M14; NCI-H460; MDA-N; MOLT-4; UACC-62; HCC 2998; HL-60; MCF7; RPMI-8226; COLO 205; LOX IMVI.
Common to all, as to assay: DTP human tumour cell line panel, 48 h

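Cultured in 96-well plates, cells were exposed to test compound for 48 hours across five concentrations. GI50: concentration for 50% inhibition of growth.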 The source made the active and inactive calls. No stated cut-off is given here; in the data, active = GI50 up to about 1.1 µM and inactive = higher.

The text below walks through data of ChEMBL document CHEMBL1201862, “PubChem BioAssay data set” (2004).

What is called GI50 is the concentration that inhibits growth by half.

Consider `COc1ccccc1/C=C/c1c(N)ncnc1Nc1cccc(Cl)c1`, for which the GI50 is 1.69 µM (inactive) with IGROV-1; 30.5 µM (inactive) with Malme-3M; 16.4 µM (inactive) in the assay with SK-MEL-28; 20.6 µM (inactive) with SNB-19; 34 µM (inactive) in the assay with SW-620; 22 µM (inactive) in the assay with SK-MEL-5. In addition, the GI50 with MDA-MB-435 is 16.7 µM (inactive); with NCI-H23, 20.8 µM (inactive); in the assay on A498, 12.7 µM (inactive); in the assay with M14, 26.5 µM (inactive); in the assay on NCI-H460, 20.7 µM (inactive); with MDA-N, 25 µM (inactive). The GI50 in the assay with MOLT-4 is 0.311 µM (active); with UACC-62, 16.6 µM (inactive); in the assay with HCC 2998 it was 27.4 µM (inactive); with HL-60, 0.282 µM (active); in the assay with MCF7, 25.8 µM (inactive); in the assay with RPMI-8226, 0.318 µM (active).
`CC(C)C(=O)OCC1CCCN2CCCCC12` (centres undefined): the GI50 in the assay with Malme-3M is > 100 µM (inactive); in the assay with SK-MEL-28, 97.9 µM (inactive); in the assay with SNB-19, > 100 µM (inactive); in the assay on SW-620, > 100 µM (inactive); in the assay with SK-MEL-5, > 100 µM (inactive); with MDA-MB-435, > 100 µM (inactive). Further, the GI50 with NCI-H23 is > 100 µM (inactive); with A498 it was > 100 µM (inactive); with M14, > 100 µM (inactive); in the assay on NCI-H460, 38.7 µM (inactive); in the assay on COLO 205 it was 51.1 µM (inactive); in the assay with MDA-N, > 100 µM (inactive). Further, the GI50 in the assay on MOLT-4 is 50.8 µM (inactive); in the assay on UACC-62 it was 68.1 µM (inactive); in the assay on HCC 2998 it was 28.8 µM (inactive); in the assay with HL-60, 39.8 µM (inactive); in the assay with MCF7, 48.1 µM (inactive); with RPMI-8226, 95.3 µM (inactive). Also, in the assay on LOX IMVI, the GI50 is 82 µM (inactive).
Take `O=C1OC(C2=CC(=O)c3ccccc3C2=O)C(Cl)=C1Cl` (centres undefined): the GI50 with Malme-3M was 26.5 µM (inactive); with SK-MEL-28, 41 µM (inactive); in the assay with SNB-19, 56.1 µM (inactive); in the assay on SW-620, 35.2 µM (inactive); in the assay with SK-MEL-5, 31.1 µM (inactive); with MDA-MB-435, 35.6 µM (inactive). The GI50 is 24.4 µM (inactive) with NCI-H23; 42.8 µM (inactive) in the assay on A498; 39.3 µM (inactive) in the assay on M14; 56.8 µM (inactive) in the assay on NCI-H460; 35 µM (inactive) with COLO 205; 39.5 µM (inactive) in the assay with MDA-N. In addition, the GI50 with MOLT-4 was 34.4 µM (inactive); in the assay with UACC-62, 17.4 µM (inactive); in the assay with HCC 2998 it was 25.1 µM (inactive); in the assay with HL-60, 35.9 µM (inactive); in the assay with MCF7, 20.9 µM (inactive); with RPMI-8226 it was 19.5 µM (inactive). The GI50 in the assay with LOX IMVI was 20.2 µM (inactive).
In the case of `CCCC(=O)NC(Nc1ccc(F)cc1)(C(F)(F)F)C(F)(F)F`, the GI50 in the assay on Malme-3M is > 100 µM (inactive); in the assay on SK-MEL-28, > 75.2 µM (inactive); with SNB-19, > 100 µM (inactive); in the assay on SW-620 it was 2.84 µM (inactive); with SK-MEL-5, 1.03 µM (active); in the assay on MDA-MB-435 it was 1.25 µM (inactive). For the same molecule, the GI50 in the assay on NCI-H23 is > 43.4 µM (inactive); in the assay with A498, > 100 µM (inactive); in the assay with M14, 0.387 µM (active); with NCI-H460, 56.5 µM (inactive); in the assay with COLO 205, 7.1 µM (inactive); in the assay on MDA-N it was > 40.7 µM (inactive). Moreover, the GI50 with MOLT-4 is 7.98 µM (inactive); in the assay on UACC-62, 1.09 µM (active); in the assay with HCC 2998, 98.6 µM (inactive); in the assay with HL-60, 1.75 µM (inactive); in the assay with MCF7 it was > 37.7 µM (inactive); in the assay on RPMI-8226, 32.2 µM (inactive). Moreover, the GI50 in the assay with LOX IMVI is 0.404 µM (active).
Regarding `COc1cc(S(=O)(=O)Nc2nc(-c3ccc(N4C(=O)C(CC(=O)O)SC4c4ccccc4O)cc3)cs2)ccc1Cl` (centres undefined), the GI50 is 34.9 µM (inactive) in the assay with IGROV-1; > 100 µM (inactive) in the assay on Malme-3M; > 100 µM (inactive) with SK-MEL-28; > 100 µM (inactive) with SNB-19; > 100 µM (inactive) with SW-620; 29 µM (inactive) in the assay with SK-MEL-5. Further, the GI50 is 87.5 µM (inactive) in the assay on MDA-MB-435; 22.1 µM (inactive) in the assay on NCI-H23; 29.1 µM (inactive) with A498; > 100 µM (inactive) with M14; 82.4 µM (inactive) with NCI-H460; 83.4 µM (inactive) in the assay with COLO 205. Moreover, the GI50 with MDA-N was > 100 µM (inactive); in the assay on MOLT-4 it was 49.5 µM (inactive); in the assay with UACC-62 it was 72.9 µM (inactive); with HCC 2998 it was 9.93 µM (inactive); with HL-60, 15.3 µM (inactive); in the assay on MCF7, 42.5 µM (inactive). The GI50 with LOX IMVI was > 100 µM (inactive).
As to `O=c1c2cc([N+](=O)[O-])ccc2n2n1Cc1ccccc1C2`, the GI50 in the assay with IGROV-1 was > 100 µM (inactive); in the assay on Malme-3M, > 100 µM (inactive); in the assay with SK-MEL-28 it was > 100 µM (inactive); in the assay on SNB-19, > 100 µM (inactive); in the assay on SW-620, > 100 µM (inactive); in the assay on SK-MEL-5 it was 84.3 µM (inactive). The GI50 in the assay on MDA-MB-435 was > 100 µM (inactive); with NCI-H23, > 100 µM (inactive); in the assay with A498 it was 63.8 µM (inactive); in the assay on NCI-H460 it was 40.6 µM (inactive); in the assay on COLO 205, > 100 µM (inactive); with MDA-N, > 100 µM (inactive). For the same molecule, the GI50 was 35.8 µM (inactive) with MOLT-4; > 100 µM (inactive) in the assay with UACC-62; > 100 µM (inactive) in the assay on HCC 2998; > 100 µM (inactive) in the assay on HL-60; > 100 µM (inactive) in the assay on MCF7; > 100 µM (inactive) with RPMI-8226. Moreover, in the assay on LOX IMVI, the GI50 is > 100 µM (inactive).
On to `Cc1cc(C)c(P2C(=C(O[Si](C(C)C)(C(C)C)C(C)C)C(C)(C)C)C2(c2ccccc2)c2ccccc2)c(C)c1` (centres undefined), for which the GI50 with IGROV-1, with SK-MEL-28, with SNB-19, in the assay with SW-620, in the assay on SK-MEL-5 and with MDA-MB-435 was > 100 µM (inactive) each time. The GI50 in the assay with NCI-H23, in the assay with A498, in the assay on M14, with NCI-H460, in the assay with COLO 205 and in the assay on MDA-N was > 100 µM (inactive) in each case. Further, the GI50 in the assay with MOLT-4 is > 100 µM (inactive); with UACC-62, > 100 µM (inactive); in the assay with HCC 2998, > 100 µM (inactive); in the assay with HL-60, > 100 µM (inactive); with MCF7, > 100 µM (inactive); in the assay with RPMI-8226, 62.8 µM (inactive). For the same molecule, the GI50 with LOX IMVI is > 100 µM (inactive).
Regarding `COC(=O)[C@H]1[C@H](OC(=O)[C@@H](OC)c2ccccc2)ON2CC[C@@H](OC(=O)c3ccccc3)[C@H]12`, the GI50 in the assay with IGROV-1 is 49.9 µM (inactive); with Malme-3M it was > 100 µM (inactive); in the assay on SK-MEL-28, > 100 µM (inactive); in the assay with SNB-19, > 100 µM (inactive); with SK-MEL-5, > 100 µM (inactive); in the assay on MDA-MB-435 it was > 100 µM (inactive). The GI50 is > 100 µM (inactive) in the assay on NCI-H23; 9.38 µM (inactive) with A498; > 100 µM (inactive) with M14; > 100 µM (inactive) in the assay on NCI-H460; > 100 µM (inactive) in the assay on COLO 205; > 100 µM (inactive) in the assay with MDA-N. Also, the GI50 was > 100 µM (inactive) with MOLT-4; 10.7 µM (inactive) with UACC-62; > 100 µM (inactive) with HCC 2998; > 100 µM (inactive) in the assay with HL-60; 3.83 µM (inactive) in the assay on MCF7; > 100 µM (inactive) in the assay on RPMI-8226. In addition, the GI50 with LOX IMVI was > 100 µM (inactive).
As for `CCc1nc(N)nc(N)c1-c1ccc(Cc2ccccc2)c([N+](=O)[O-])c1`, the concentration for 50% growth inhibition (GI50) in the assay with IGROV-1 was 0.0702 µM (active); with SK-MEL-28 it was > 39.5 µM (inactive); in the assay with SNB-19 it was 1.51 µM (inactive); in the assay with SW-620 it was < 0.01 µM (active); in the assay on SK-MEL-5, < 0.01 µM (active); in the assay on MDA-MB-435, < 0.01 µM (active). Also, the concentration for 50% growth inhibition (GI50) with NCI-H23 was 0.0171 µM (active); in the assay on A498, 3.05 µM (inactive); in the assay on M14, 0.0144 µM (active); with NCI-H460 it was < 0.01 µM (active); in the assay with COLO 205, 0.561 µM (active); with MDA-N, < 0.046 µM (active). Further, the GI50 in the assay on MOLT-4 is < 0.0127 µM (active); in the assay with UACC-62, < 0.0111 µM (active); in the assay on HCC 2998 it was 0.151 µM (active); with HL-60, < 0.01 µM (active); with MCF7, 0.0484 µM (active); in the assay on RPMI-8226 it was 0.0622 µM (active). Further, the 50% growth inhibitory concentration (GI50) with LOX IMVI was < 0.01 µM (active).
As for `CC1=NN(c2ccccc2)C(=O)/C1=C\c1c(C)[nH]n(-c2ccccc2)c1=O`, the GI50 in the assay on IGROV-1 is > 100 µM (inactive); in the assay on Malme-3M, 95.1 µM (inactive); in the assay on SK-MEL-28 it was > 100 µM (inactive); in the assay on SNB-19, > 100 µM (inactive); with SW-620, 92.7 µM (inactive); in the assay on SK-MEL-5, > 100 µM (inactive). Besides, the GI50 in the assay with MDA-MB-435, in the assay on NCI-H23, in the assay on A498, in the assay on M14, in the assay on NCI-H460 and in the assay with COLO 205 was > 100 µM (inactive) in each case. The GI50 with MDA-N, in the assay with MOLT-4, in the assay with UACC-62, in the assay on HCC 2998, in the assay on HL-60 and with MCF7 was > 100 µM (inactive) in each case. For the same molecule, the GI50 with RPMI-8226 was 28.4 µM (inactive).
